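A five-concentration, 48-hour dose response in 96-well plates underlies each endpoint, interpolated linearly between surrounding concentrations. Definition used: TGI = concentration required for complete inhibition of growth.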
Columns and labels:
Assay in all cases: NCI tumour cell line growth inhibition, 48 h
SF-268 CNS = test system: SF-268 CNS
UACC-257 melanoma = test system: UACC-257 melanoma
HOP-92 NSCLC = test system: HOP-92 NSCLC
SNB-19 CNS = test system: SNB-19 CNS
OVCAR-4 ovarian = test system: OVCAR-4 ovarian
SN12C renal = test system: SN12C renal
HOP-62 NSCLC = test system: HOP-62 NSCLC
OVCAR-8 ovarian = test system: OVCAR-8 ovarian
ACHN renal = test system: ACHN renal
SK-MEL-5 melanoma = test system: SK-MEL-5 melanoma
RPMI-8226 leukemia = test system: RPMI-8226 leukemia
NCI-H23 lung = test system: NCI-H23 lung
A498 renal = test system: A498 renal
SW-620 colon = test system: SW-620 colon
K-562 leukemia = test system: K-562 leukemia
NCI-H226 lung = test system: NCI-H226 lung
MDA-MB-231 breast = test system: MDA-MB-231 breast
DU-145 prostate = test system: DU-145 prostate
MDA-N = test system: MDA-N
PC-3 prostate = test system: PC-3 prostate

| SMILES | TGI (SF-268 CNS) [µM] | TGI (UACC-257 melanoma) [µM] | TGI (HOP-92 NSCLC) [µM] | TGI (SNB-19 CNS) [µM] | TGI (OVCAR-4 ovarian) [µM] | TGI (SN12C renal) [µM] | TGI (HOP-62 NSCLC) [µM] | TGI (OVCAR-8 ovarian) [µM] | TGI (ACHN renal) [µM] | TGI (SK-MEL-5 melanoma) [µM] | TGI (RPMI-8226 leukemia) [µM] | TGI (NCI-H23 lung) [µM] | TGI (A498 renal) [µM] | TGI (SW-620 colon) [µM] | TGI (K-562 leukemia) [µM] | TGI (NCI-H226 lung) [µM] | TGI (MDA-MB-231 breast) [µM] | TGI (DU-145 prostate) [µM] | TGI (MDA-N) [µM] | TGI (PC-3 prostate) [µM] |
| --- | --- | --- | --- | --- | --- | --- | --- | --- | --- | --- | --- | --- | --- | --- | --- | --- | --- | --- | --- | --- |
| COc1cc2cc3c4c(cc(OC)c(OC)c4c2cc1OC)CCN3C(=O)OCCN1CCNCC1 | 23.3 | 29.1 | 26.2 | 43.3 | 31.3 | 29.9 | 31.5 | 29.7 | 28.3 | 28.2 | 34.6 | 31.8 | 27.8 | 28.1 | 31.2 | 28.1 |  |  |  |  |
| CC(=O)Nc1ccc(C(=O)NN2C(=O)CSC2c2ccc([N+](=O)[O-])cc2)cc1 (configuration not stated) | > 100 | > 100 | > 100 | > 100 | > 100 | > 100 | > 100 | > 100 | > 100 | > 100 | > 100 | > 100 | > 100 | > 100 | > 100 | > 100 | > 100 | > 100 | > 100 |  |
| CCCCS(=O)CCC(N)P(=O)(O)O (configuration not stated) | > 100 | > 100 | > 100 | > 100 | > 100 | > 100 | > 100 | > 100 | > 100 | > 100 | > 100 | > 100 |  | > 100 | > 100 | > 100 |  | > 100 | > 100 | > 100 |
| O=c1[nH]c2c(nc1NC13CC4CC(CC(C4)C1)C3)c(=O)oc1ccccc12 | > 100 | > 100 | > 100 | > 100 |  | > 100 | > 100 | > 100 | > 100 | > 100 | > 100 | > 100 |  | > 100 | > 100 | 85.6 |  |  |  |  |
| COc1cccc2c1OC(c1ccc(Cl)cc1)C([N+](=O)[O-])=C2 (configuration not stated) | 13.9 | 8.39 |  | 17 | 6.2 | 8.41 | 4.89 | 10.2 | 3.28 | 2.95 |  | 21.2 |  |  | 24.3 |  | 13.8 | 13.2 | 3.45 | 5.3 |
| Cc1cc2c(cc1Cl)SC(NS(=O)(=O)c1ccc(Cl)cc1)=NS2(=O)=O | > 100 | > 100 | 39.5 | > 100 | > 100 | > 100 | > 100 |  | > 100 | > 100 | > 100 | > 100 | > 100 | > 100 | > 100 | > 100 | > 100 | > 100 |  |  |
| COc1ccc(N2C(=O)CC(C3CC(C(C)(C)C)CCC3=O)C2=O)cc1 (configuration not stated) | > 100 | > 100 |  | > 100 | > 100 | > 100 | > 100 | > 100 | > 100 | > 100 | > 100 | > 100 |  | > 100 | > 100 | > 100 | > 100 | > 100 | > 100 | > 100 |
| O=c1[nH]c(=O)n(C2OC(CO)C(O)C2O)cc1NN=NCc1ccccc1 (configuration not stated) | > 100 | > 100 | > 100 | > 100 | > 100 | > 100 | > 100 | > 100 | > 100 | > 100 | > 76.2 | > 100 | > 100 | > 67.8 | > 100 | > 100 |  |  |  |  |
| CCCC(=O)n1[nH]c(=O)n(-c2ccc(Cl)cc2)c1=O | > 100 | > 100 |  | > 100 | > 100 | > 100 | > 100 | > 100 | > 100 | > 100 | > 100 | > 100 |  | > 100 | > 100 | > 100 | > 100 | > 100 | > 100 | > 100 |
| CCCCC1=NNC(=O)C1 |  | > 100 | > 100 |  | > 100 | > 100 | > 100 | > 100 | > 100 | > 100 | > 100 | > 100 | > 100 | > 100 |  | > 100 | > 100 |  | > 100 | > 100 |
| C=C(CCC/C(C)=C/C=C/[C@]1(C)CCCc2ccoc21)CC(=O)O | > 100 | > 100 | > 100 | > 100 | > 100 | > 100 | > 100 | > 100 | > 100 | > 100 | > 100 | > 100 | > 100 | > 100 | > 100 | > 100 | > 100 | 98.4 |  | > 100 |
| CCN(CC)CC1CCCCCCCCCCC1=O (configuration not stated) | > 100 | > 100 |  | > 100 | > 100 | > 100 | > 100 | > 100 | > 100 | > 100 | > 100 | > 100 | > 100 | > 100 | > 100 | > 100 |  |  |  |  |
| CO/N=C/c1cc(OC)c(OC)c(OC)c1 | > 100 | > 100 | > 100 | > 100 | > 100 | > 100 | > 100 | > 100 | > 100 | > 100 | > 100 | > 100 | > 100 | > 100 | > 100 | > 100 |  |  |  |  |
| CCCCCCCCCC1(N=[N+]=[N-])C(=O)c2ccccc2N(C)C1=O (configuration not stated) | > 100 | > 100 | 53.3 | > 100 | > 100 | 57.8 | > 100 |  | > 100 | 26.6 | > 100 | 97.4 | 76.8 | > 100 | > 100 |  |  | > 100 | 79.1 | > 100 |
| COCC1OC(Sc2ccccc2)C(O)C(OC)C1OC (configuration not stated) | > 100 | > 100 |  | > 100 | > 100 | > 100 | > 100 | > 100 | > 100 | > 100 |  | > 100 |  | > 100 | > 100 | > 100 | > 100 | > 100 | > 100 | > 100 |
| O=C(NC(Cc1c[nH]c2ccccc12)C(=O)Nc1ccc(Br)cc1)OCc1ccccc1 (configuration not stated) | 37.7 | 23.5 | 19.1 | 90.8 | 23.6 | 22.5 | 23.7 | 30.3 | 60.3 | 22.5 | 34.2 | 26.5 | 23.7 | 54.6 | 51.3 | 31.4 | 22.9 | 29.2 |  | 24.5 |
| CC1(C)COC(c2cccnc2/C=N/O)=N1 | > 100 | > 100 | > 100 | > 100 | > 100 | > 100 | > 100 | > 100 | > 100 | > 100 |  | > 100 | > 100 | > 100 | > 100 | > 100 |  |  |  |  |
| Cc1cc(N)c(C)c2c1[nH]c1ccc(O)cc12 | > 100 | > 100 |  | > 100 | > 100 | > 100 | > 100 | > 100 | > 100 |  | > 100 | > 100 |  | > 100 | > 100 | > 100 |  |  |  |  |
| CCOC(=O)c1c(-c2ccc(OC)cc2)c(C#N)c(=S)n(C2OC(COC(C)=O)C(OC(C)=O)C(OC(C)=O)C2OC(C)=O)c1-c1ccccc1 (configuration not stated) | > 100 | > 100 | > 100 | > 100 | > 100 | > 100 | > 100 |  | > 100 | > 100 | > 100 | > 100 |  | > 100 | > 100 |  | > 100 | > 100 | > 100 | > 100 |
| Nc1ccc2c(c1)N(C(=O)c1cc3cc(NC(=O)c4cc5ccccc5o4)ccc3[nH]1)CC2CCl (configuration not stated) |  |  | 1.47 | 16.1 | 3.71 | > 46.4 | 0.804 | 1.45 | 11.6 |  | 0.287 | 0.161 | 0.544 | 12.6 |  | 0.329 |  | 2.08 | 0.512 | 12.2 |
| CCCCc1c(N(C)C)c(OC(C)=O)c(-c2cn(C)c3ccccc23)oc1=O | 88.9 | 59.8 |  | 90.3 | > 100 | 59.8 | 55.7 |  | > 100 | 26.8 |  | 56.7 | 81.4 | > 100 |  | 36.8 |  | > 100 | 44.8 | 50.9 |
| CCOC(=O)C1(C#N)C(c2ccccc2)CC(O)(c2ccc(OC)cc2)C(C(=O)c2ccc(OC)cc2)C1c1ccccc1 (configuration not stated) | > 100 | > 100 |  | > 100 | > 100 | > 100 | > 100 | > 100 | > 100 | > 100 | > 100 | > 100 |  | > 100 | > 100 | > 100 |  |  |  |  |
| COC(=O)CCC1=CCC2(SC)C(=O)Nc3cccc1c32 (configuration not stated) | > 100 | > 100 | > 100 | > 100 | > 100 | > 100 | > 100 | > 100 | > 100 | > 100 | > 100 | > 100 |  | > 100 |  | > 100 | > 100 | > 100 |  | > 100 |
| CCOC(=O)C1=C(C)N(Cc2ccc(Cl)cc2Cl)C2(O)C=CC(=O)C3C(=O)N(c4ccccc4)C(=O)C132 (configuration not stated) | 11.3 | 5.81 | 4.09 | 3.73 | 4.2 | 4.93 | 29.5 | 7.89 | 3.08 | 8.57 | 2.18 | 3.53 | 16.9 | 5.97 | 4.04 | 3.09 | 6.44 | 2.97 |  | 3.55 |
| COC(=O)c1cc2c3c(ccc2[nH]1)N(C(=O)c1cc2cc(OC)c(OC)c(OC)c2[nH]1)CC3CCl (configuration not stated) | > 100 | > 100 | > 100 | > 100 | > 100 |  | > 72 | > 100 | > 100 | > 100 | > 21.5 | > 100 | > 100 | > 100 |  | > 75 | > 100 | > 84.6 |  | > 100 |
| CS(=O)(=O)O[C@H]1CN2C[C@@H](O)[C@@H](O)[C@H]2[C@H]1CO | > 100 | > 100 |  | > 100 | > 100 |  | > 100 | > 100 | > 100 | > 100 | > 100 | > 100 | > 100 | > 100 | > 100 | > 100 | > 100 | > 100 |  | > 100 |
| COC(=O)c1ccc(C(=O)NC(Cc2ccc(Oc3cc(CC(NC(=O)c4ccccc4C(=O)OC)C(=O)OC)ccc3OC)cc2)C(=O)OC)cc1 (configuration not stated) | > 100 | > 100 | > 100 | > 100 | > 100 | > 100 | > 100 | > 100 | > 100 |  | > 100 | > 100 | > 100 | > 100 | > 100 | > 100 |  | > 100 | > 100 | > 100 |

— PubChem BioAssay (NCI)
